We go through 1 molecule from ChEMBL document CHEMBL4840339, “A naphthyridine-indole ligand for selective stabilization of G-quadruplexes and conformational conversion of hybrid topology” (Bioorg Med Chem, 2021).

Assay [1] deals with HeLa. The assay is described as follows: Induction of cell cycle arrest in human HeLa cells assessed as S cell population level at 6 uM incubated for 24 hrs by propidium iodide /RNase staining based flow cytometry (reference value: 36 %). Format: functional.
Assay [2] concerns HeLa. Put plainly: Induction of apoptosis in human HeLa cells assessed as early apoptotic cells at 6 uM after 24 hrs by Annexin V-FITC/PI staining based flow cytometric analysis (reference value: 3.28 %). In kind it is functional.
Assay [3] has as its system Quadruplex DNA. The assay is described as follows: Stabilization of G4 quadruplex DNA in human HeLa cells assessed as BG4 foci formation at 6 uM measured after 24 hrs by confocal microscopic analysis. Format: cell-based.
Assay [4] relates to Quadruplex DNA. Put plainly: Binding affinity to Bcl-2 G4 quadruplex DNA (unknown origin) assessed as conversion from hybrid topology to parallel topology by measuring positive signal at 266 nm at 10 to 100 uM by circular dichroism spectroscopy. Format: nucleic-acid assay. The following applies: dose 10-100 µM.
In assay [5] the test system is HeLa. Put plainly: Induction of apoptosis in human HeLa cells assessed as late apoptotic cells at 6 uM after 24 hrs by Annexin V-FITC/PI staining based flow cytometric analysis (reference value: 0.42 %). In kind it is functional.
The target in assay [6] is Quadruplex DNA. Put plainly: Displacement of thiazole orange from Tel26 G4 quadruplex DNA (unknown origin) assessed as relative affinity by fluorescent intercalator displacement assay. Format: nucleic-acid assay.
Assay [7] has as its system Quadruplex DNA. The assay is described as follows: Binding affinity to G4 quadruplex DNA (unknown origin) assessed as assessed as compound-DNA complex formation by 1H-NMR spectra analysis. Format: nucleic-acid assay.
For the next assay, the system named is dsDNA. Put plainly: Stabilization of dsDNA (unknown origin) assessed as thermal stability by measuring increase in melting temperature by UV melting assay. In kind it is nucleic-acid assay.
The test system of assay [8] is Quadruplex DNA. The assay is described as follows: Binding affinity to Tel26 G4 quadruplex DNA (unknown origin) assessed as conversion from hybrid topology to parallel topology by measuring positive signal at 266 nm at 10 to 100 uM by circular dichroism spectroscopy. Format: nucleic-acid assay. The following applies: dose 10-100 µM.
Assay [9] has as its system Quadruplex DNA. The assay is described as follows: Binding affinity to Tel23 G4 quadruplex DNA (unknown origin) assessed as conversion from hybrid topology to parallel topology by measuring positive signal at 266 nm at 10 to 100 uM by circular dichroism spectroscopy. The following applies: dose 10-100 µM. Format: nucleic-acid assay.
For assay [10], the system named is HeLa. Put plainly: Induction of apoptosis in human HeLa cells assessed as necrotic cells at 6 uM after 24 hrs by Annexin V-FITC/PI staining based flow cytometric analysis (reference value: 0.42 %). Format: functional.
Assay [11] has as its system Quadruplex DNA. The assay is described as follows: Binding affinity to c-MYC G4 quadruplex DNA (unknown origin) assessed as conversion from hybrid topology to parallel topology by measuring positive signal at 266 nm at 10 to 100 uM by circular dichroism spectroscopy. In kind it is nucleic-acid assay. The following applies: dose 10-100 µM.
Assay [12] relates to Quadruplex DNA. The assay is described as follows: Stabilization of F-Tel21-T G4 quadruplex DNA (unknown origin) assessed as thermal stability by measuring normalized intensity at 2 uM by FRET assay. Format: nucleic-acid assay.
Assay [13] concerns Quadruplex DNA. The assay is described as follows: Binding affinity to ds26 non-G4 DNA (unknown origin) assessed as conversion from hybrid topology to parallel topology by measuring positive signal at 266 nm at 10 to 100 uM by circular dichroism spectroscopy. Format: nucleic-acid assay. The following applies: dose 10-100 µM.
Assay [14] concerns Quadruplex DNA. Put plainly: Stabilization of Tel26 G4 quadruplex DNA (unknown origin) assessed as thermal stability by measuring increase in melting temperature by UV melting assay. In kind it is nucleic-acid assay. The following applies: dose 5.0 µM.
Assay [15] has as its system HeLa. The assay is described as follows: Induction of apoptosis in human HeLa cells assessed as increase in caspase 3 level at 4 to 6 uM measured after 48 hrs. Format: functional, cell-based. The following applies: dose 4-6 µM.
The subject of assay [16] is HeLa. Put plainly: Cytotoxicity against human HeLa cells assessed as […] in cell viability measured after 48 hrs by MTT assay. Format: functional, cell-based.
Assay [17] has as its system Quadruplex DNA. Put plainly: Stabilization of Tel26 G4 quadruplex DNA (unknown origin) assessed as thermal stability by measuring increase in melting temperature at 100 uM by variable temperature circular dichroism spectroscopy. In kind it is nucleic-acid assay.
Assay [18] relates to HeLa. The assay is described as follows: Induction of apoptosis in human HeLa cells assessed as viable cells at 6 uM after 24 hrs by Annexin V-FITC/PI staining based flow cytometric analysis (reference value: 95.8 %). Format: functional. The following applies: read-out: Activity.
For assay [19], the system named is Quadruplex DNA. The assay is described as follows: Binding affinity to c-KIT1 G4 quadruplex DNA (unknown origin) assessed as conversion from hybrid topology to parallel topology by measuring positive signal at 266 nm at 10 to 100 uM by circular dichroism spectroscopy. Format: nucleic-acid assay. The following applies: dose 10-100 µM.
The subject of assay [20] is HeLa. Put plainly: Induction of cell cycle arrest in human HeLa cells assessed as G2/M cell population level at 6 uM incubated for 24 hrs by propidium iodide /RNase staining based flow cytometry (reference value: 36 %). In kind it is functional.
Assay [21] has as its system HeLa. The assay is described as follows: Induction of cell cycle arrest in human HeLa cells assessed as G0/1 cell population level at 6 uM incubated for 24 hrs by propidium iodide /RNase staining based flow cytometry (reference value: 38 %). In kind it is functional.
Assay [22] relates to Quadruplex DNA. The assay is described as follows: Binding affinity to Tel26 G4 quadruplex DNA (unknown origin) assessed as positive signal at 266 nm measured up to 90 deg C at 100 uM by variable temperature circular dichroism spectroscopy. In kind it is nucleic-acid assay.
The test system of assay [23] is Quadruplex DNA. The assay is described as follows: Stabilization of F-Tel21-T G4 quadruplex DNA (unknown origin) assessed as thermal stability by measuring normalized intensity in presence of 10 to 50 eq dsDNA at 2 uM by FRET-based competition assay. In kind it is nucleic-acid assay.

Molecules are shown by their SMILES. The source made the active and inactive calls. The rule behind the calls is not given here.

In the case of `CN(C)CCOc1ccc2c(ccn2-c2ccc3ccc(-n4ccc5cc(OCCN(C)C)ccc54)nc3n2)c1`, the Activity is recorded as 33% in the assay on HeLa [1]; 20.1% with HeLa [2]; 16.6% with HeLa [5]; 1.49% in the assay with HeLa [10]; 10% with HeLa [20]; 57% with HeLa [21]. Besides, the result with Quadruplex DNA [3], in the assay on Quadruplex DNA [4], in the assay on Quadruplex DNA [7], with Quadruplex DNA [8], in the assay with Quadruplex DNA [9] and in the assay on Quadruplex DNA [12] was Active. Besides, the result in the assay with Quadruplex DNA [14], with HeLa [15], in the assay on Quadruplex DNA [22] and in the assay on Quadruplex DNA [23] was Active. Moreover, the IC50 at Quadruplex DNA [6] amounted to 6.7 µM; with HeLa [16], 4.3 µM. Also, the outcome with dsDNA, in the assay with Quadruplex DNA [11], in the assay on Quadruplex DNA [13] and with Quadruplex DNA [19] was inactive. For the same molecule, the ΔTm in the assay on Quadruplex DNA [17] stood at 37 °C. For the same molecule, in the assay on HeLa [18], the viability at 6 µM came to 61.8%.
